From the supplement of paper PMC3842684 come the findings set out here.

Test [1] relates to P. falciparum NF54-pfs16-GFP early (I-III) stage gametocytes. The following applies: stage: early (I-III) gametocyte; incubation 72 h. The procedure:
(§1)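 MMV Malaria Box compounds active in the primary screen were retested in dose-response against P. falciparum NF54-pfs16-GFP early (I-III) or late (IV-V) gametocytes, 72 h, 37 C, viable gametocytes counted by confocal imaging; IC50 from an unconstrained 4-parameter fit. Compounds with no plateau have no IC50 and are left out.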

Test [2] concerns P. falciparum NF54-pfs16-GFP late (IV-V) stage gametocytes. To be noted: stage: late (IV-V) gametocyte; incubation 72 h. The procedure: as §1

On to `Oc1ccccc1CN1CCC2(CCCN(Cc3ccccc3F)C2)C1` (stereo unspecified), for which the figures for the “IC50, viable gametocyte number” value in test [1] and in test [2] were 1.36 µM and 0.673 µM, respectively. On to `Oc1ccccc1CN1CCN(C(c2ccccc2)c2ccccc2)CC1`, for which, in test [2], the “IC50, viable gametocyte number” value was 1.32 µM. On the same count and under the same terms, as for `Cc1cc(Nc2ccc(OCc3ccccc3)cc2)nc2cc(O)ccc12`, the figure is 0.784 µM.

With `Oc1ccccc1CNCC12CC3CC(CC(C3)C1)C2`, the “IC50, viable gametocyte number” value in test [1] came to 0.891 µM; in test [2] it was 0.415 µM.

As for `Cc1ccc2c(C)nc(Nc3nc(C)cc(-c4ccccc4)n3)nc2c1`, in test [2], the “IC50, viable gametocyte number” value was 0.673 µM. In the case of `CCOC(=O)C1=C(C)N=c2sc(=Cc3cc(Cl)ccc3O)c(=O)n2C1c1ccc(OC)cc1` (stereo unspecified), the “IC50, viable gametocyte number” value in test [1] came out at 0.359 µM; in test [2], 0.228 µM. Turning to `CCCCCCn1c(=N)n(CC(O)COc2cccc(C)c2)c2ccccc21` (stereo unspecified), the “IC50, viable gametocyte number” value in test [2] amounted to 1.61 µM. For the compound `COc1ccc(Nc2nc(NCc3ccccc3)c3ccccc3n2)cc1`, in test [1], the “IC50, viable gametocyte number” value worked out at 1.48 µM. Consider `OC(CNC1CCCCC1)Cn1c2ccccc2c2ccccc21` (stereo unspecified), for which, in test [2], the “IC50, viable gametocyte number” value was 0.897 µM. Turning to `CC1CCCCN1CCCNC(=O)c1ccc2c(c1)sc1nc(-c3ccc(F)cc3)cn12` (stereo unspecified), the “IC50, viable gametocyte number” value in test [1] was determined as 1.79 µM.

With `COc1ccc(C(C)=O)cc1N1C(=O)C2C(C1=O)C1(c3ccccc3)C(=O)C2(c2ccccc2)C(c2ccc(C)cc2)=C1c1ccc(C)cc1` (stereo unspecified), in test [2], the “IC50, viable gametocyte number” value turned out to be 0.827 µM.

In the case of `OC1=C2C(=Nc3ccccc3SC2c2ccc(Br)cc2)c2ccccc21` (stereo unspecified), the “IC50, viable gametocyte number” value in test [2] turned out to be 0.875 µM.

As for `CCOC(=O)c1cn(CC)c2cc(N3CCCCC3)c(F)cc2c1=O`, the “IC50, viable gametocyte number” value in test [2] came to 0.337 µM.

For `FC(F)(F)c1cccc(Nc2nc3ccccc3nc2Nc2cccc(C(F)(F)F)c2)c1`, the “IC50, viable gametocyte number” value in test [1] was 1.31 µM; in test [2], 0.416 µM.

Regarding `CCOC(=O)c1cnc2ccc(CC)cc2c1O`, the “IC50, viable gametocyte number” value in test [2] came out at 0.253 µM. Still for that read-out and setting: the same measure for `COc1cccc(O)c1CN1CCC2(CCCN(Cc3ccc(F)cc3)C2)C1` (stereo unspecified): 0.899 µM. For the compound `CC(C)(C)c1ccc(O)c(CNC2CCCCC2)c1`, the “IC50, viable gametocyte number” value came out at 0.712 µM in test [1] and 0.382 µM in test [2]. On to `Cc1cccc(-n2ncc3c(=O)[nH]c(-n4nc(C)cc4NC(=O)c4cc5ccccc5o4)nc32)c1`, for which the “IC50, viable gametocyte number” value in test [2] came to 1.09 µM. Same read-out and setting: the same measure for `OCCNc1nc(Nc2ccc(Cl)c(Cl)c2)nc2ccccc12`: 1.35 µM. `CCOC(=O)C1=C(C)N=c2sc(=Cc3ccccc3O)c(=O)n2C1c1ccc(OC)c2ccccc12` (stereo unspecified): the “IC50, viable gametocyte number” value in test [2] came to 1.08 µM.

Take `CSc1ccccc1C(=O)Nc1nc(-c2ccccn2)cs1`: the “IC50, viable gametocyte number” value in test [2] came out at 0.781 µM. For the compound `Cc1ccc(Nc2nc(-c3ccccn3)cs2)cc1`, the results for the “IC50, viable gametocyte number” value in test [1] and in test [2] were 0.461 µM and 0.231 µM, respectively. The like results for `Cc1ccc(N2C3c4ccccc4N(S(=O)(=O)c4ccc(C)cc4)C2c2ccccc2N3S(=O)(=O)c2ccc(C)cc2)cc1` were, in that order, 1.19 µM and 0.208 µM. Consider `COc1ccc(C(=O)C(CCC(CNC(C)(C)C)C(=O)c2ccc(OC)cc2)CNC(C)(C)C)cc1` (stereo unspecified), for which the “IC50, viable gametocyte number” value in test [2] turned out to be 1.09 µM. For the compound `CC1CC2=C(CC1CNCCCN(C)C)C(C)(C)CCC2` (stereo unspecified), the “IC50, viable gametocyte number” value in test [2] came to 0.541 µM.

On to `COc1ccc(C2c3ccc4ccccc4c3Oc3ncn(CCCN(C)C)c(=N)c32)cc1` (stereo unspecified), for which, in test [2], the “IC50, viable gametocyte number” value is 1.06 µM. Same read-out and setting: the same measure for `CC(C)CCNCC(O)Cn1c2ccccc2c2ccccc21` (stereo unspecified): 1.17 µM. Consider `COc1ccc(-c2nc3cc(Cc4ccc5[nH]c(-c6ccc(OC)cc6)nc5c4)ccc3[nH]2)cc1`, for which the “IC50, viable gametocyte number” value turned out to be 0.949 µM in test [1] and 1.11 µM in test [2]. As to `Nc1ccc(-c2nc3cc(Cc4ccc5[nH]c(-c6ccc(N)cc6)nc5c4)ccc3[nH]2)cc1`, the “IC50, viable gametocyte number” value in test [2] was 1.1 µM. Regarding `CCCCCCc1cc2cc(-c3nc4ccccc4[nH]3)c(=Nc3ccccc3C)oc2cc1O`, the “IC50, viable gametocyte number” value in test [1] worked out at 0.819 µM; in test [2], 0.465 µM. Regarding `COc1ccc(NC(=O)C2c3ccccc3C(=O)N(CC(C)C)C2c2cccs2)cc1Cl` (stereo unspecified), in test [2], the “IC50, viable gametocyte number” value was found to be 0.596 µM. Still for that read-out and setting: as for `COc1ccc(C2=C(c3ccc(OC)cc3)C3(c4ccccc4)C(=O)C2(c2ccccc2)C2C(=O)N(c4ccc(C)cc4)C(=O)C23)cc1` (stereo unspecified), the figure is 0.333 µM. In the case of `CCN(CC)CCNc1ccnc2cc(Cl)ccc12`, the “IC50, viable gametocyte number” value in test [1] was 1.02 µM. For the compound `CNCCCNc1ccnc2cc(Cl)ccc12`, the “IC50, viable gametocyte number” value in test [1] came to 0.274 µM; in test [2] it was 0.31 µM. Consider `CCN(CC)CCNc1ccnc2cc3ccccc3cc12`, for which the “IC50, viable gametocyte number” value in test [1] was 1.71 µM. `OC(CNC1CCCCC1)Cn1c2ccc(I)cc2c2cc(I)ccc21` (stereo unspecified): the “IC50, viable gametocyte number” value in test [1] came out at 0.252 µM; in test [2], 0.063 µM. On to `CCOC(=O)c1cn(CC)c2cc(N(C)CCc3ccc(OC)c(OC)c3)c(F)cc2c1=O`, for which, in test [2], the “IC50, viable gametocyte number” value came out at 0.574 µM. As to `Oc1ccc(-c2nc(-c3ccc4oc5ccc(-c6[nH]c(-c7ccc(O)cc7)nc6-c6ccccc6)cc5c4c3)c(-c3ccccc3)[nH]2)cc1`, the “IC50, viable gametocyte number” value in test [1] came to 0.699 µM. Consider `CC1=C(CC(=O)c2cccc([N+](=O)[O-])c2)C(=O)c2ccccc2C1=O`, for which the figures for the “IC50, viable gametocyte number” value in test [1] and in test [2] were 1.16 µM and 0.745 µM, respectively.

For the compound `CCCc1cc(O)c2c3c(c(=O)oc2c1)CN(C)CC3`, the “IC50, viable gametocyte number” value in test [2] came to 0.591 µM.

For `COc1ccc(C2NCCc3c2[nH]c2ccccc32)cc1CN1CCN(c2ccc(F)cc2)CC1` (stereo unspecified), the “IC50, viable gametocyte number” value in test [2] turned out to be 1.17 µM. Still for that read-out and setting: the same measure for `COc1cc2c(cc1OC)C1=NNC(=O)C1=NC(C)(C)C2`: 1.04 µM.

Turning to `O=c1cc(NC2CCN(CCCc3ccccc3)CC2)c2cc(Cl)ccc2o1`, the “IC50, viable gametocyte number” value in test [1] came out at 1.31 µM. For `CCc1ccc(Nc2cc(C)c3ccc(O)cc3n2)cc1`, in test [2], the “IC50, viable gametocyte number” value is 1.27 µM.

For `CN(C)c1ccc(C(O)(c2ccc(N(C)C)cc2)c2ccc(N(C)C)cc2)cc1`, the “IC50, viable gametocyte number” value is 0.769 µM in test [1] and 0.315 µM in test [2]. Consider `O=C1c2ccccc2C2=Nc3ccccc3SC(c3cccc(F)c3)C12` (stereo unspecified), for which, in test [2], the “IC50, viable gametocyte number” value was 0.733 µM. On the same count and under the same terms, as for `COc1ccc(C(=O)NC(c2ccc(Cl)cc2Cl)c2cc(Cl)c3cccnc3c2O)cc1` (stereo unspecified), the figure is 1.07 µM.

As for `COc1ccc(-c2nc(N3CCN(C(=O)C4CCCCC4)CC3)c3c4c(sc3n2)CCCC4)cc1`, the “IC50, viable gametocyte number” value in test [2] is 1.29 µM. The same measure, in the same setting: as for `Cc1ccc(-c2cc3c(nn2)-c2ccccc2C3=O)cc1`, the figure is 0.603 µM.

Consider `Cn1c(=O)n(C)c2cc(CNCCNc3ccnc4cc(Cl)ccc34)ccc21`, for which the “IC50, viable gametocyte number” value in test [1] stood at 0.588 µM. With `CCCCCCc1cc(O)c2c3c(c(=O)oc2c1)CCC(C)C3` (stereo unspecified), in test [2], the “IC50, viable gametocyte number” value is 0.759 µM. Turning to `CN(C)c1ccc(C=Cc2nc(=O)c3ccccc3o2)cc1`, the “IC50, viable gametocyte number” value in test [2] is 0.936 µM. Turning to `Brc1ccc(Nc2nc3ccccc3nc2Nc2ccc(Br)cc2)cc1`, the “IC50, viable gametocyte number” value in test [2] stood at 0.948 µM. Same read-out and setting: the same measure for `COC(=O)c1ccc(C2C3=C(O)CC(c4ccc(F)cc4)CC3=Nc3ccccc3N2C(=O)c2ccccc2)cc1` (stereo unspecified): 1.13 µM. Take `CCCCCCc1cc2cc(-c3csc(C=Cc4ccccc4)n3)c(=O)oc2cc1O`: the “IC50, viable gametocyte number” value is 0.83 µM in test [1] and 0.594 µM in test [2]. The like results for `CN(C)CCCNc1c2ccccc2nc2ccccc12` were, in that order, 1.44 µM and 0.703 µM.

Consider `Cc1sc2ncnc(Sc3nc4ccccc4[nH]3)c2c1C`, for which the “IC50, viable gametocyte number” value in test [1] amounted to 1.14 µM; in test [2], 0.324 µM.

Take `CCN(CC)CCn1c(=N)n(CC(O)c2ccc(Cl)c(Cl)c2)c2ccccc21` (stereo unspecified): the “IC50, viable gametocyte number” value in test [1] was determined as 1.44 µM; in test [2], 1.09 µM. The like results for `C=CC12CCN(CC1)C(C(O)c1ccnc3ccc(OC)cc13)C2` (stereo unspecified) were, in that order, 0.823 µM and 0.276 µM.

With `CCCOCc1cc(CN2CCN(c3cccc(Cl)c3)CC2)c(O)c2ncccc12`, in test [2], the “IC50, viable gametocyte number” value was found to be 0.584 µM.

Consider `CN1CCN(c2ccc(Nc3c4ccccc4nc4ccccc34)cc2)CC1`, for which the results for the “IC50, viable gametocyte number” value in test [1] and in test [2] were 1.11 µM and 1.36 µM, respectively. Turning to `c1ccc(Cn2c(N=Nc3c(Nc4ccccc4)ccc4ccccc34)nc3ccccc32)cc1`, the “IC50, viable gametocyte number” value in test [2] was 0.183 µM. On the same count and under the same terms, as for `COc1cccc(C=Cc2nc(=O)c3ccccc3o2)c1OC`, the figure is 0.438 µM. With `COc1ccc2c(=O)cc(C(Cl)(Cl)Cl)oc2c1`, in test [1], the “IC50, viable gametocyte number” value is 1.21 µM. Take `CSC1=NC(=Nc2c(C)cccc2C)C2(CCC(C(C)(C)C)CC2)N1c1ccc(Cl)cc1` (stereo unspecified): the “IC50, viable gametocyte number” value in test [2] was found to be 0.592 µM. Same read-out and setting: the same measure for `CC(C)(C)c1ccc2c(c1)CN(Cc1ccc(Cl)cc1)CO2`: 0.92 µM. With `Clc1cc(Br)ccc1-c1ccc(CNCC2CCNCC2)o1`, the “IC50, viable gametocyte number” value in test [1] is 0.824 µM; in test [2], 0.692 µM. The like results for `CCOC(=O)c1c(NC(=O)c2ccccc2)sc2c(O)c(CN(CC)CC)ccc12` were, in that order, 0.81 µM and 0.371 µM. As to `COc1ccc(C=C2SC(Nc3ccc(F)cc3)=NC2=O)c(OC)c1`, the “IC50, viable gametocyte number” value in test [2] came out at 0.892 µM. On the same count and under the same terms, the same measure for `CCOc1ccccc1CN1CCc2nc3cc(C(C)(C)C)nn3c(O)c2C1`: 1.59 µM.
